Data: article PMC8533253, “Bis-thiobarbiturates as Promising Xanthine Oxidase Inhibitors: Synthesis and Biological Evaluation” (Biomedicines, 2021)

How the values were obtained:
Xanthine oxidase (XO) = target: T1, Xanthine oxidase (XO) (Bos taurus, UniProt P80457); assay: XO inhibitory assay (spectrophotometric quantification of uric acid formation at 295 nm); assay type: biochemical; details: read-out: XO inhibition (%)
T1 construct: purchased Sigma-Aldrich X4875
Procedure: XO inhibitory and antioxidant assays were performed in triplicate while antiproliferative assay was conducted in quadruplicate. For each assay, at least two independent experiments were performed. An initial screening at the concentration of 30 μM for all compounds under study was performed in each in vitro study. […] Half-maximal inhibitory concentration (IC50) studies were performed for drugs used as a reference and for the most promising bis-thiobarbiturate in XO inhibitory, antioxidant, and cytotoxicity assays.
The XO inhibitory activity was evaluated by spectrophotometric quantification of uric acid formation. The 50 mM dihydrogen phosphate buffer (pH 7.4) was used to dilute all solutions. For each assay performed, 50 μL of the test solution and 50 μL of the 0.1 U/mL XO (Sigma-Aldrich X4875, St. Louis, MO, USA) solution were added in each well of an Elisa microplate (96 wells) followed by 5 min of incubation at 37 °C. […] The reaction started with the addition of 150 μL of a xanthine solution (420 μM). The absorbance was recorded at a wavelength of 295 nm every minute for 10 min. To obtain only the absorbance associated with uric acid, a solution consisting of 50 μL of the test solution, 150 μL of the xanthine solution, and 50 μL of buffer were used as blank. […] For each compound, the percentage of enzyme inhibition was calculated according to the following formula:% of XO inhibition = [1 − (ABSsample − ABSblank of sample)/ABSnegative control] × 100
(§1) All in vitro results are expressed as mean values ± standard deviation (SD) of at least two independent determinations. The difference between groups was analyzed for each assay by Student’s t-test. The IC50 values were calculated by sigmoidal fitting analysis considering a 95% confidence interval.

[1] = Antioxidant assay, DPPH method; details: 60 min
Procedure: (§2) XO inhibitory and antioxidant assays were performed in triplicate while antiproliferative assay was conducted in quadruplicate. For each assay, at least two independent experiments were performed. An initial screening at the concentration of 30 μM for all compounds under study was performed in each in vitro study. A second screening at 5 μM was performed for compounds that originated an inhibitory potential higher than 80% for the XO activity at 30 μM. Half-maximal inhibitory concentration (IC50) studies were performed for drugs used as a reference and for the most promising bis-thiobarbiturate in XO inhibitory, antioxidant, and cytotoxicity assays.
Antioxidant potential was spectrophotometrically evaluated by the 2,2-diphenyl-1-picrylhydrazyl (DPPH, Sigma-Aldrich, St. Louis, MO, USA) method. All solutions and dilutions were prepared in 99.5% ethanol before each experiment. For each assay, 100 μL of the test solution and 100 μL of DPPH solution (0.2 mM) were added to each well of a 96 wells Elisa microplate. […] After 60 min of incubation in dark at rt, the capacity of each compound to reduce DPPH was followed by measuring the absorbance at 517 nm. Ethanol was used as a negative control and Trolox as the positive control. To discount the absorbance of each compound at 517 nm, a blank was performed with 100 μL of each test compound and 100 μL of ethanol. The antioxidant capacity of each sample was calculated according to the following formula:% DPPH scavenging = [1 − (ABSsample − ABSblank of sample)/ABSnegative control] × 100
as §1

[2] = Cytotoxicity/antiproliferative assay (MTT) on MCF-7; assay type: cell-based; details: human, MCF-7 cells (breast adenocarcinoma), read-out: Cytotoxicity (% cell viability at 30 µM) MCF-7
Procedure: as §2
(§3) The cytotoxic potential of the compounds being studied was evaluated by quantifying the extent of the reduction of 3-(4,5-dimethylthiazol-2-yl)-2,5-diphenyltetrazolium bromide (MTT, VWR, Radnor, PA, USA) on tumor cell lines of the colon (Caco-2) and breast (MCF-7) adenocarcinoma and non-tumor human dermal fibroblasts (NHDF). All cell lines were obtained from the American Type Culture Collection (ATCC, Manassas, VA, USA) and were maintained in 75 cm^2 culture flasks in a humidified air incubator with 5% CO2 at 37 °C. NHDF cells have grown in RPMI 1640 medium (Sigma-Aldrich, St. Louis, MO, USA) supplemented with 10% fetal bovine serum (FBS), 10 mM 4-(2-hydroxyethyl)-1-piperazineethanesulfonic acid (HEPES), 2 mM L-glutamine, 1 mM sodium pyruvate, and 1% antibiotic/antimycotic (Ab: 10,000 units/mL penicillin G, […] streptomycin and 25 μg/mL amphotericin B). MCF-7 cells were cultured in high-glucose Dulbecco’s modified Eagle medium (DMEM, Sigma-Aldrich, St. Louis, MO, USA) supplemented with 10% FBS, and 1% Ab. The Caco-2 cell line was cultured in a high glucose DMEM supplemented with 20% FBS and 1% of the antibiotic mixture (Sp: 10,000 units/mL penicillin G and […] of streptomycin). For the assay, cells were seeded in 96-well plates (2 × 10^4 cells/mL) in the culture medium. After 48 h of adherence, cells were treated with the test solutions and incubated for 72 h. […] Untreated cells were used as a negative control and 5-FU as the positive control. Following incubation, the medium was removed and replaced with a fresh incomplete culture medium (without FBS and Ab or Sp) and MTT solution [5 mg/mL in phosphate buffer saline (PBS)]. After further incubation for 4 h at 37 °C, the medium with MTT was removed, formazan crystals were dissolved in DMSO, and the absorbance was read at 570 nm. Results were expressed as the relative cell proliferation in comparison with the negative control cells.
as §1

[3] = Cytotoxicity/antiproliferative assay (MTT) on Caco-2; assay type: cell-based; details: human, read-out: Cytotoxicity (% cell viability at 30 µM) Caco-2
Procedure: as §2, §3, §1

[4] = Cytotoxicity assay (MTT) on NHDF; assay type: cell-based, human; details: human, NHDF cells (non-tumor human dermal fibroblasts), 30 µM, 72 h, MTT; read-out: Cytotoxicity (% cell viability at 30 µM) NHDF
Procedure: as §2, §3, §1

T1 sequence (P80457 whole entry): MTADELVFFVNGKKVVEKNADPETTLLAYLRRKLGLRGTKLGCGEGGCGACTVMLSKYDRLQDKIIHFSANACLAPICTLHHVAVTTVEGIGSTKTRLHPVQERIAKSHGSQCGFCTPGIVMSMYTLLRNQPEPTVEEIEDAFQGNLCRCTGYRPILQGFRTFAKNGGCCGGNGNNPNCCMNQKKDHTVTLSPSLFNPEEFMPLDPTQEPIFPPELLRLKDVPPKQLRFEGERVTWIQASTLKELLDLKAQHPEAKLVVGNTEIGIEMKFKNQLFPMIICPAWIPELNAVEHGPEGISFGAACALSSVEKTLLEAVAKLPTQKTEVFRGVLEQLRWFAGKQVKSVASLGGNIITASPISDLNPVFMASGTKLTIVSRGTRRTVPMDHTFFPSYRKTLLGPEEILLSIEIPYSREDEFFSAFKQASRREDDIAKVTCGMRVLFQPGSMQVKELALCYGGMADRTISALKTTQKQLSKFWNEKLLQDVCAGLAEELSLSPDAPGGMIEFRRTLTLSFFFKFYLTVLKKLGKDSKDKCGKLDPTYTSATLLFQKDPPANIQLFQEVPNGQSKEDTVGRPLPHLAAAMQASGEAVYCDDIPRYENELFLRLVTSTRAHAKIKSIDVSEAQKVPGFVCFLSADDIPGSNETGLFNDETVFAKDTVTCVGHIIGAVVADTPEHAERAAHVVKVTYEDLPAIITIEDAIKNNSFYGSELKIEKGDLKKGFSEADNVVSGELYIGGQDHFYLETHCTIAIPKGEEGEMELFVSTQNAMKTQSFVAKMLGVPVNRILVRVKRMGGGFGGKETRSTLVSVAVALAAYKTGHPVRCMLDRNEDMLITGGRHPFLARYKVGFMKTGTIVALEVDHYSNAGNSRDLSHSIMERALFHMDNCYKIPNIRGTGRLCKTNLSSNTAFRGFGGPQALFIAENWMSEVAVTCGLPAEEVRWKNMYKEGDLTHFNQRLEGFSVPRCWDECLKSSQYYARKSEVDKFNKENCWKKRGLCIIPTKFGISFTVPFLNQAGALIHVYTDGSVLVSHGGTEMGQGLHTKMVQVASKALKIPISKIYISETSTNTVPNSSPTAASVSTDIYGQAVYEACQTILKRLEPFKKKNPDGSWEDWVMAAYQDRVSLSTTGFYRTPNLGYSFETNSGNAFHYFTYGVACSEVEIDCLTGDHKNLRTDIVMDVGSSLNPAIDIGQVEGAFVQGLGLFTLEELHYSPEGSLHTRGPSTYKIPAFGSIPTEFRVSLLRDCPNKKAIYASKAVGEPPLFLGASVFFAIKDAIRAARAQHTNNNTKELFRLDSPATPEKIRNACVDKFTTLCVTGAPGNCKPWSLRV

| Compound | melting point | inhibition at 5 µM (Xanthine oxidase (XO)) [%] | inhibition at 30 µM (Xanthine oxidase (XO)) [%] | DPPH (% scavenging at 30 µM) [1] [%] | viability at 72 h, 30 µM [2] [%] | viability at 72 h, 30 µM [3] [%] | viability at 72 h, 30 µM [4] [%] | IC50 ([1]; read-out: DPPH Scavenging IC50) [µM] |
| --- | --- | --- | --- | --- | --- | --- | --- | --- |
| O=c1[nH]c(O)c(C(c2ccc([N+](=O)[O-])cc2)c2c(O)[nH]c(=O)[nH]c2=O)c(=O)[nH]1 | 227 °C (dec.) |  |  |  |  |  |  |  |
| Oc1ncnc2[nH]ncc12 [Allo, allopurinol, reference compound] |  | 26.9 ± 0.82 | 88.5 | 0.48 ± 0.21 |  |  |  |  |
| CCn1c(O)c(C(c2ccccc2)c2c(O)n(CC)c(=S)n(CC)c2=O)c(=O)n(CC)c1=S [Compound 3, 5,5′-(Phenylmethylene)bis(1,3-diethyl-6-hydroxy-2-thioxo-2,3-dihydropyrimidin-4(1H)-one)] | 177 to 179 °C | 10.4 | 80.2 | 34.58 ± 0.96 | 90 ± 5.33 | 91.2 ± 9.87 | 88.7 ± 1.4 |  |
| CCn1c(O)c(C(c2ccc(C)cc2)c2c(O)n(CC)c(=S)n(CC)c2=O)c(=O)n(CC)c1=S [Compound 4, 5,5′-(p-Tolymethylene)bis(1,3-diethyl-6-hydroxy-2-thioxo-2,3-dihydropyrimidin-4(1H)-one)] | 163 to 164 °C |  | 36.5 | 42.64 ± 0.81 | 90.6 ± 3.92 | 98.6 ± 5.7 | 95.6 ± 7.26 |  |
| CCn1c(O)c(C(c2ccc(C#N)cc2)c2c(O)n(CC)c(=S)n(CC)c2=O)c(=O)n(CC)c1=S [Compound 5, 4-(Bis(1,3-diethyl-6-hydroxy-4-oxo-2-thioxo-1,2,3,4-tetrtahydropyrimidin-5-yl)methyl)benzonitrile] | 199 to 200 °C | 52.9 | 86.1 | 34.76 ± 1.42 | 90.7 ± 4.06 | 62.5 ± 11.9 | 86.5 ± 5.92 |  |
| O=c1[nH]cc(F)c(=O)[nH]1 [Compound 5-FU, 5-fluorouracil, reference compound] |  |  |  |  | 45.9 ± 4.72 | 37.1 ± 1.51 | 20.9 ± 0.83 |  |
| CCn1c(O)c(C(c2ccc([N+](=O)[O-])cc2)c2c(O)n(CC)c(=S)n(CC)c2=O)c(=O)n(CC)c1=S [Compound 6, 5,5′-((4-Nitrophenyl)methylene)bis(1,3-diethyl-6-hydroxy-2-thioxo-2,3-dihydropirimidin-4(1H)-one)] | 202 to 204 °C | 56.8 | 92.2 | 34.99 ± 1.32 | 91.7 ± 1.48 | 100 ± 4.45 | 99.8 ± 5.43 |  |
| O=c1[nH]c(=S)[nH]c(O)c1C(c1ccc([N+](=O)[O-])cc1)c1c(O)[nH]c(=S)[nH]c1=O [Compound 7, 5,5′-((4-Nitrophenyl)methylene)bis(6-hydroxy-2-thioxo-2,3-dihydropyrimidin-4(1H)-one)] | 225 °C (dec.) |  | 20.9 | 32.41 ± 0.26 | 98.7 ± 4.83 | 97.1 ± 3.63 | 96.6 ± 4.32 |  |
| CCn1c(O)c(C(c2ccc(NC(C)=O)cc2)c2c(O)n(CC)c(=S)n(CC)c2=O)c(=O)n(CC)c1=S [Compound 9, N-(4-(Bis(1,3-diethyl-6-hydroxy-4-oxo-2-thioxo-1,2,3,4-tetrahydropyrimidin-5-yl)methyl)phenyl)acetamide] | 178 to 179 °C |  | 45.6 | 39.63 ± 2.26 | 90.2 ± 5.7 | 67.5 ± 9.4 | 81.3 ± 8.87 |  |
| CCn1c(O)c(C(c2ccc(OC)cc2)c2c(O)n(CC)c(=S)n(CC)c2=O)c(=O)n(CC)c1=S [Compound 10, 5,5′-((4-Methoxyphenyl)methylene)bis(1,3-diethyl-6-hydroxy-2-thioxo-2,3-dihydropyrimidin-4(1H)-one)] | 139 to 140 °C |  | 23.5 | 38.12 ± 1.56 | 100 ± 13 | 62.6 ± 7.74 |  |  |
| CCn1c(O)c(C(c2cccc(O)c2)c2c(O)n(CC)c(=S)n(CC)c2=O)c(=O)n(CC)c1=S [Compound 12, 5,5′-((3-Hydroxyphenyl)methylene)bis(1,3-diethyl-6-hydroxy-2-thioxo-2,3-dihydropyrimidin-4(1H)-one)] | 191 to 193 °C |  | 72.2 | 42.92 ± 0.61 | 91.7 ± 4.91 | 90.9 ± 3.84 | 85.6 ± 7.17 |  |
| CCn1c(O)c(C(c2ccccc2[N+](=O)[O-])c2c(O)n(CC)c(=S)n(CC)c2=O)c(=O)n(CC)c1=S [Compound 13, 5,5′-((2-Nitrophenyl)methylene)bis(1,3-diethyl-6-hydroxy-2-thioxo-2,3-dihydropyrimidin-4(1H)-one)] | 172 to 173 °C | 37.4 | 89.7 | 29.90 ± 0.50 | 98.2 ± 3.25 | 95.4 ± 4.17 | 75.8 ± 2.41 |  |
| CCn1c(O)c(C(c2ccc(N(C)C)cc2[N+](=O)[O-])c2c(O)n(CC)c(=S)n(CC)c2=O)c(=O)n(CC)c1=S [Compound 14, 5,5′-((4-(Dimethylamino)-2-nitrophenyl)methylene)bis(1,3-diethyl-6-hydroxy-2-thioxo-2,3-dihydropyrimidin-4(1H)-one)] | 143 to 145 °C | 56.3 ± 1.21 | 90.7 ± 0.71 | 28.04 ± 0.25 | 88.1 ± 3.25 | 97.2 ± 2.97 | 80.1 ± 7.69 |  |
| Cc1nc(-c2ccc(OCC(C)C)c(C#N)c2)sc1C(=O)O [Febuxostat, febuxostat, reference compound] |  | 93.9 ± 2.84 | 95 |  |  |  |  |  |
| Cc1c(C)c2c(c(C)c1O)CCC(C)(C(=O)O)O2 (stereo not drawn) [Trolox, reference compound] |  |  |  | 54.86 ± 0.98 |  |  |  | 23.8 ± 2.13 |
